According to patent publication US20080175935A1, “Method to Treat Skin Conditions with Narcissus Tazetta Bulb Extract” (NuSkin International, Inc., priority 2004, published 2008):
“Also recorded” adds a separate entry of the source.

Key:
arNOX [1] = test: arNOX assay: ferricytochrome c reduction (superoxide production) in sera; assay type: biochemical, human; conditions: for serum activity (cytochrome c reduction) in response to added reagent: sera of aged individuals; for oscillating activity in sera of aged individuals: FIG. 2G (SOD), FIG. 2H (coenzyme Q); for amount at which inhibition of age-related cytochrome c reduction reaches a plateau: sera; for further inhibition of ferric cytochrome c reduction when added after maximal inhibition by the other agent: serum, SOD 30 units and coenzyme Q 450 μg added sequentially, 300 sec; for inhibition of ferric cytochrome c reduction activity: untreated serum samples; for Inhibition by superoxide dismutase: sera from aged individuals; for Superoxide production (reduction of ferricytochrome c), with superoxide dismutase: sera of aged (80-98 y) individuals, n = 10
Description: (§1) Reduction of ferric cytochrome c by superoxide was employed as a standard measure of superoxide formation (Mayo, L. A. and Cumutte, J. (1990) Meth. Enzyme. 186, 567-575. 7. Butler, J, Koppenol, W. H. and Margollash, E. (1982) J. Biol. Chem. 257, 10747).
Assays of ferric cytochrome c reduction in sera compared 53 samples from young (20 to 40 y) and 65 samples from aged (80 to 100) individuals. […]
(§2) Measurement of arNOX activity based on ferricytochrome c reduction as a measure of superoxide production were taken. The rate of reduction of ferricytochrome c was determined from the increase in absorbance at 550 nm with 540 nm as reference. This is a widely accepted method when coupled to superoxide dismutase inhibition for the measurement of superoxide generation. The assay consists of 150 μl (2 mg/ml) of oxidized ferricytochrome c solution and 150 μl serum or 40 μl buffy coats in PBSG buffer (8.06 g NaCl, 0.2 g KCl, 0.18 g Na2HPO4, 0.26 g KH2PO4, 0.13 g CaCl2, 0.1 g MgCl2, 1.35 g glucose dissolved in 1000 ml deionized water, adjusted to pH 7.4, filtered and stored at 4° C.). Rates were determined using a SLM Aminco DW-2000 spectrophotometer (Milton Roy, Rochester, N.Y., USA) in the dual wave length mode of operation with continuous measurements over 1 min every 1.5 min. After 45 min, test compound was added and the reaction was continued for 45 min. A millimolar extinction coefficient of 19.1 cm^−1 was used for reduced ferricytochrome c. (D. M. Morré, F. Guo and D. J. Morré, 2003, Mol. Cell. Biochem. 254: […]).

arNOX [2] = test: arNOX assay: ferricytochrome c reduction (superoxide production) by buffy coats; assay type: cell-based, human; conditions: for arNOX inhibition, activity at a dilution of 1:50: dilution 1:50 (solids 2 mM), buffy coats from a person; for arNOX inhibition, activity at a dilution of 1:500: dilution 1:500; for arNOX inhibition, activity at a dilution of 1:500 / Rate of reduction of ferricytochrome c, +100 μM Q10: buffy coats; for oscillating activity of buffy coats and sera of aged individuals: FIG. 2, SOD 60 units or coenzyme Q 450 μg added after 45 min, 70-100 y; for Rate of reduction of ferricytochrome c, +100 μM Q10: mean ± SD, negative rates statistically zero
Protocol: as §1, with “10747). If superoxide dismutase was added to remove the superoxide as it was generated, the reduction of ferric cytochrome c was prevented to confirm that ferric cytochrome c reduction in the assay was due to superoxide.” for “10747).”
Buffy coats were pooled from aged individuals (70-100 y) and the reduction of ferric cytochrome c was observed (FIG. 2) with an oscillating activity. […] This oscillatory reduction of cytochrome c was absent from buffy coat fractions from younger (20-40 y) individuals (FIGS. 2A and 2B). […] The rate of coenzyme Q inhibited ferric cytochrome c reduction was 7-fold greater in buffy coat fractions of 90-94 y individuals as compared to 80-89 y individuals (Table 1). Buffy coats of less than 65 y individuals lacked the activity.
The compounds listed above in Table 4 were tested initially in the standard arNOX assay at a dilution of 1:50. Solids were prepared in water at an initial concentration of approximately 100 mM and then also tested at a dilution of 1:50, i.e., 2 mM. All compounds were evaluated using human buffy coats prepared from a person. Several compounds were evaluated with sera from aged patients as follow: IBR-DORMIN® Narcissus tazetta bulb extract (person), IBR-TOM® aqueous serum of tomato, available from Israeli Biotechnology Research Ltd. Corporation, Tel Aviv, Israel, (person), L-carnosine (person, person), L-ERGO® synthetically derived 1-ergothioneine, available from OXIS Health Products, Inc., Portland, Oreg. (person). Serum and buffy coats gave consistent results. Compounds active at 1:50 dilutions were reassayed with buffy coats at a dilution of 1:500 and compounds active at 1:500 were reassayed with buffy coats at a dilution of 1:5000.
Details of the assay protocol are as follow. Buffy coats, a mixture of lymphocytes and platelets, were obtained from a commercial supplier. The blood samples were maintained at 4° C. prior to collection and assay. Ca. 10^7 cells were added to each assay. Cell numbers were determined using a hemocytometer.
as §2

[3] = tested on: NADH cytochrome c reductase; test: NADH-cytochrome c reductase activity in serum; assay type: biochemical, human; conditions: serum of either young or aged individuals
Description: (§3) However, the NADH-stimulated activity was about 4 nmoles/min/ml of sera for sera of both young and aged individuals. The aging-specific increment of ca. 2 nmoles/min/mg protein was observed both in the presence or absence of NADH.

[4] = tested on: NADH cytochrome c reductase; test: NADH cytochrome c reductase of pig liver microsomes; assay type: biochemical
Description: as §3

Compound: N[C@@H](CCC(=O)N[C@@H](CS)C(=O)NCC(=O)O)C(=O)O [GSH]
- serum activity (cytochrome c reduction) in response to added reagent (arNOX [1]): neither stimulates nor inhibits

Compound: C[N+](C)(C)[C@@H](Cc1c[nH]c(=S)[nH]1)C(=O)[O-] [L-Ergothioneine]
- arNOX inhibition, activity at a dilution of 1:50 (arNOX [2]): mixed results
- arNOX inhibition, activity at a dilution of 1:500 (arNOX [2]): inactive

Compound: NCCC(=O)N[C@@H](Cc1cnc[nH]1)C(=O)O [L-carnosine, L-Carnosine]
- effect on the arNOX activities of a serum sample (arNOX [1]; one experiment, serum sample containing 3 arNOX activities): inhibited one arNOX, stimulated a second arNOX and was without effect on a third

Compound: Cc1cc(-c2ccccc2)c2ccc3c(-c4ccccc4)cc(C)nc3c2n1 [bathocuproene]
- serum activity (cytochrome c reduction) in response to added reagent (arNOX [1]): unaffected

Compound: Cc1cc(-c2ccc(S(=O)(=O)O)cc2)c2ccc3c(-c4ccc(S(=O)(=O)O)cc4)cc(C)nc3c2n1 [bathocuproenedisulforiate]
- serum activity (cytochrome c reduction) in response to added reagent (arNOX [1]): unaffected

Compound: COc1cc(CNC(=O)CCCC/C=C/C(C)C)ccc1O [capsaicin]
- response of arNOX to the drug (arNOX [1]): does not respond

Compound: COC1=C(OC)C(=O)C(C/C=C(\C)CC/C=C(\C)CC/C=C(\C)CC/C=C(\C)CC/C=C(\C)CC/C=C(\C)CC/C=C(\C)CC/C=C(\C)CC/C=C(\C)CCC=C(C)C)=C(C)C1=O [coenzyme Q, ubiquinone-10]
- oscillating activity of buffy coats and sera of aged individuals (arNOX [2]): reduced to basal levels
- oscillating reduction of ferric cytochrome c (arNOX [2]; buffy coats pooled from aged individuals (70-100 y), 100 μM coenzyme Q (FIG. 2D)): inhibited completely
- EC50 (arNOX [2]; buffy coats pooled from aged individuals (70-100 y), read-out: EC50 for inhibition of oscillating reduction of ferric cytochrome c): 20 µM
- Rate of reduction of ferricytochrome c, +100 μM Q10 (arNOX [2]; group 80-89 years): −0.03 ± 0.02 nmoles min^−1 10^7 cells^−1
- Rate of reduction of ferricytochrome c, +100 μM Q10 (arNOX [2]; group 90-94 years): −0.07 ± 0.07 nmoles min^−1 10^7 cells^−1
- oscillating activity in sera of aged individuals (arNOX [1]): eliminated; also recorded: largely blocked
- amount at which inhibition of age-related cytochrome c reduction reaches a plateau (arNOX [1]; FIG. 4): about 450 μg
- further inhibition of ferric cytochrome c reduction when added after maximal inhibition by the other agent (arNOX [1]): no further inhibition
- inhibition of ferric cytochrome c reduction activity (arNOX [1]; 300 μg/ml): 40%
- activity of NADH cytochrome c reductase in serum [3]: Neither SOD nor coenzyme Q inhibited
- activity of authentic NADH cytochrome c reductase of pig liver microsomes [4]: did not significantly inhibit

Compound: [Cu] [copper]
- serum activity (cytochrome c reduction) in response to added reagent (arNOX [1]): did not enhance the activity

Compound: OO [hydrogen peroxide]
- serum activity after oxidation of protein SH (arNOX [1]; dilute (0.01%) hydrogen peroxide followed by catalase): inactive

Compound: COC(=O)c1ccc(O)cc1 [methylparaben, Methylparaben]
- effect on the two distinct arNOX activities of the buffy coats (arNOX [2]; buffy coats containing two distinct arNOX activities): inhibited one and had no effect on the other
- arNOX inhibition, activity at a dilution of 1:50 (arNOX [2]): active
- arNOX inhibition, activity at a dilution of 1:500 (arNOX [2]): inactive

Compound: O=C(O)c1cc[c]([Hg][Cl])cc1 [p-chloromercuribenzoate]
- serum activity (cytochrome c reduction) in response to added reagent (arNOX [1]): inhibited

Compound: CCCOC(=O)c1ccc(O)cc1 [propylparaben, Propylparaben]
- arNOX inhibition, activity at a dilution of 1:50 (arNOX [2]): active
- arNOX inhibition, activity at a dilution of 1:500 (arNOX [2]): inactive

Compound: (−)-epigallocatechin gallate
- response of arNOX to the drug (arNOX [1]): does not respond

Compound: Catalase
- serum activity (cytochrome c reduction) in response to added reagent (arNOX [1]): without effect

Compound: superoxide dismutase
- oscillating activity of buffy coats and sera of aged individuals (arNOX [2]): reduced to basal levels
- oscillating reduction of ferric cytochrome c (arNOX [2]; buffy coats pooled from aged individuals (70-100 y), SOD added (FIG. 2C)): inhibited completely
- oscillating activity in sera of aged individuals (arNOX [1]; listed as SOD): eliminated; also recorded: completely inhibited
- Inhibition by superoxide dismutase (arNOX [1]; before proteinase K digestion): 40%
- Inhibition by superoxide dismutase (arNOX [1]; following proteinase K digestion): 60%
- Superoxide production (reduction of ferricytochrome c), with superoxide dismutase (arNOX [1]; after proteinase K): 0.22 ± 0.1 Nmoles/min/mi/sera
- Superoxide production (reduction of ferricytochrome c), with superoxide dismutase (arNOX [1]; no proteinase K): 0.42 ± 0.1 Nmoles/min/mi/sera
- amount at which inhibition of age-related cytochrome c reduction reaches a plateau (arNOX [1]; FIG. 3): 45 units
- further inhibition of ferric cytochrome c reduction when added after maximal inhibition by the other agent (arNOX [1]): no further inhibition
- inhibition of ferric cytochrome c reduction activity (arNOX [1]; 30 units/ml): 40±10%
- activity of NADH cytochrome c reductase in serum [3]: Neither SOD nor coenzyme Q inhibited
